Where two headings read alike, the source gives them in different places.
Columns and labels:
bacterial phage λ = test: UV inactivation of lambda phage in plasma or fetal bovine serum; type: cell-based; conditions: Escherichia phage Lambda, light or radiation study, 0.5 h; Fetal bovine serum, 0.03 mg/mL, UVA 30 min. (8.4 J/cm^2); read-out: Viral Reduction (log), λ
Procedure: A stock solution of bacterial phage λ is added to plasma to obtain final titre of 1.2×10^8 PFU/ml and compound No. 3 (structure given above) at 0.1 mg/ml concentration. The mixture was transferred to Pyrex glass photolysis cells and exposed to UV (300-360 nm blue lamp) for 5 minutes. After UV irradiation treatment the final viral titre and Factor VIII activity were measured as described earlier. […] About 3-6 logs of increased viral inactivation was obtained with protein coated viruses using a sensitizer. Only 10% of Factor VIII activity was recovered after viral inactivation treatment.
(§1) Viral inactivation in FBS was carried out in 100 mL serum samples in 225 cm^2 tissue culture flask in the presence of sensitizer 8B (0.03 mg/mL). The sample was exposed to UVA light from top (3.6 mW/cm^2) and bottom (3.4 mW/cm^2) while continuously mixing on an orbital shaker for 30 min. (8.4 J/cm^2). Human plasma was irradiated in a Pyrex glass photolysis cell in the presence of sensitizer 8 (0.1 mg/mL) for 5 min. Inactivation of various bacteriophages were carried out using brominated psoralens in combination with UVA light. The results in Table 5 below clearly indicate that 5-7 logs of viral reduction was obtained with various phage (enveloped and non-enveloped) in human plasma fractions and fetal bovine serum products.

phi 6 phage [1] = test: UV inactivation of phi 6 in human plasma or fetal bovine serum; type: cell-based; conditions: light or radiation study, 0.5 h; Fetal bovine serum, 0.03 mg/mL, UVA 30 min. (8.4 J/cm^2); read-out: Viral Reduction (log), phi 6
Procedure: as §1

platelets [2] = test: Platelet cell count after UV treatment; type: cell-based, human; conditions: Treated, UVA 10 min
Procedure: (§2) Single unit platelet concentrates were obtained 24 hours after collection from certified blood banks. The platelet were subjected to soft spin to remove residual RBC and about 6 logs of .phi.6 phage and sensitizer 8B were added in PBS solution to obtain 0.03 mg/mL final sensitizer concentration. The samples were transferred to Stericon™ polyolefin bag (which transmits 60% of UVA light) and irradiated from top (3.6 mW/cm^2) and bottom (3.4 mW/cm^2) in a home made reactor for 10 min. The bags were continuously mixed on extended glass platform attached to orbital shaker. The viral inactivation values and in vitro properties of platelet concentrates were monitored for 2 days after the treatment.

[3] = system: Salmonella typhimurium TA98; test: Ames mutagenicity plate incorporation assay, TA98; type: cell-based; conditions: average of duplicate plates
platelets [4] = type: cell-based, human
Procedure: (§3) Human platelet concentrates are mixed with phi 6 bacteriophage, with or without sensitizer, then exposed to U.V. light. Cell quality assays after treatment include morphology score conducted by visual inspection using a light microscope (using a Kunicki scoring system), hypotonic shock response (HSR), aggregation response induced by addition of ADP measured in an aggregometer, and cell number count.
(§4) 1. Soft spin platelet unit at 1000 rpm for 5 min to remove RBC.
(§5) 2. Dilute concentrated platelets with spun autologous plasma to obtain a conc. of 500×10^6 cells/ml.
(§6) 3. Add 5×10^6 of .phi.6 to the platelet suspension and mix gently.
(§7) 4. Add sensitizer to the platelet suspension and incubate for 15 min while protecting from light. Control samples have PBS added.
(§8) 5. Pipet 2 ml aliquots into small plastic petri dishes and irradiate with UV while rotating samples at 100 rpm on a shaker. Irradiate samples without cover.
(§9) 6. Transfer irradiated samples to 15 ml plastic centrifuge tubes.
(§10) 7. Determine morphology, HSR, ADP, Viral inactivation, cell count.
The vital inactivation values and in vitro properties of platelets subjected to viral inactivation treatment using various derivatives of psoralen are summarized in Table 1.
as §2

phi 6 phage [5] = test: UVA inactivation of phi 6 in packed red cells; type: cell-based
Procedure: Units of packed red cells were transferred to Stericon™ red cell freezing bags and the hematocrits were adjusted to 60% with PBS. […] The samples were mixed continuously during UVA exposure on an orbital shaker. The final viral titer in the sample was determined by the plaque method. In vitro biochemical and biophysical properties of treated red cells were monitored for 7 day following the treatment.
The viral inactivation kinetics in red cells is dependent on the intensity of the UVA light source. The data in Table 4 below indicate that the time required to achieve 6 logs of viral reduction varies with the intensity of the UVA light source used.

[6] = system: Salmonella typhimurium TA100; test: Ames mutagenicity plate incorporation assay, TA100; type: cell-based; conditions: average of duplicate plates
[7] = system: Salmonella typhimurium TA1537; test: Ames mutagenicity plate incorporation assay, TA1537; type: cell-based; conditions: average of duplicate plates
platelet concentrates = test: pH of platelet concentrates after UV treatment; type: cell-based, human; conditions: Treated, UVA 10 min
Procedure: as §2

salmonella mutants = test: Standard Ames mutagenicity test, overall outcome; type: cell-based, Salmonella typhimurium; conditions: 0.6 mg/mL; in words
red cells = test: Red cell in vitro properties following UVA viral inactivation treatment; type: cell-based, human; conditions: 0.3 mg/mL
Procedure: Units of packed red cells were transferred to Stericon™ red cell freezing bags and the hematocrits were adjusted to 60% with PBS. The samples were spiked with 5×10^6 PFU/mL .phi.6 phage and 0.3 mg/mL sensitizer 8B. The contents of the bag was exposed to UVA light from top (3.6 mW/cm^2) and bottom (3.4 mW/cm^2) for 6 hours (151.2 J/cm^2). The samples were mixed continuously during UVA exposure on an orbital shaker. The final viral titer in the sample was determined by the plaque method. In vitro biochemical and biophysical properties of treated red cells were monitored for 7 day following the treatment.

[8] = system: Salmonella typhimurium TA1535; test: Ames mutagenicity plate incorporation assay, TA1535; type: cell-based; conditions: average of duplicate plates
[9] = system: Salmonella typhimurium TA1538; test: Ames mutagenicity plate incorporation assay, TA1538; type: cell-based; conditions: average of duplicate plates
phi 6 bacteriophage = test: UV inactivation of phi 6 in platelet preparations; type: cell-based; conditions: for log reduction at 30 µg/mL: Bacteriophage sp., Platelet, light or radiation study, 10 min
Procedure: as §3, §4, §5, §6, §7, §8, §9, §10
To test the viral inactivation efficiency of brominated sensitizers, platelet preparations (2 mL, PRP) were spiked with .phi.6 phage and brominated psoralen (8B) and non-brominated psoralen(8C) were added to obtain final sensitizer concentration of 0.1 mg/mL. The samples were exposed to UVA light in a home made reactor consisting of 4 UVA lamps for the indicated time periods. The petri dishes containing samples were mixed on an orbital shaker during UVA exposure. The UVA light intensity at the sample position was measured at 3.3 mW/cm^2. The residual viral titer after each time point was measured by plaque method The viral reduction values are illustrated in FIG. 26.
Single unit platelet concentrates were obtained 24 hours after collection from certified blood banks. […] The viral inactivation values and in vitro properties of platelet concentrates were monitored for 2 days after the treatment.

Compound: CC[N+](CC)(CC)CCCOc1c2occc2c(Br)c2ccc(=O)oc12 [Sensitizer 8B]
- log reduction at 30 µg/mL (bacterial phage λ): 6.6
- log reduction at 30 µg/mL (phi 6 phage [1]): 6.5
- Cell count (platelets [2]; 0 Hour): 474
- Cell count (platelets [2]; 24 Hours): 499
- Cell count (platelets [2]; 48 Hours): 506
- Number of Revertant Colonies ([3]; w/S-9): 83
- Number of Revertant Colonies ([3]; without S-9): 55
- ADP Agg. (platelets [4]): 26 ± 10
- Time Required for 6.0 logs V.I. (phi 6 phage [5]; UV Reactor 1, Top, 3.3 mW/cm^2, 0.1 mg/mL, n = 1): 16.4 Hours
- Time Required for 6.0 logs V.I. (phi 6 phage [5]; UV Reactor 2, Top + Bottom, 3.6/3.4 mW/cm^2, 0.1 mg/mL, n = 9): 7.0 ± 1.2 Hours
- Time Required for 6.0 logs V.I. (phi 6 phage [5]; UV Reactor 3, Top + Bottom, 40/40 mW/cm^2, 0.1 mg/mL, n = 3): 1.3 ± 0.4 Hours
- Number of Revertant Colonies ([6]; w/S-9): 245
- Number of Revertant Colonies ([6]; without S-9): 164
- Number of Revertant Colonies ([7]; w/S-9): 26
- Number of Revertant Colonies ([7]; without S-9): 36
- pH (platelet concentrates; 0 Hour): 7.2
- pH (platelet concentrates; 24 Hours): 7.1
- pH (platelet concentrates; 48 Hours): 6.8
- Ames mutagenicity (salmonella mutants): non-mutagenic
- alterations in in vitro biochemical and biophysical properties (red cells; UVA 6 hours, in words): without any significant alterations in in vitro biochemical and biophysical properties
- % Hemochrome (red cells; Treated, Day 1, UVA 6 hours): 1.9%
- DI Max % control (deformability index) (red cells; Treated, Day 1, UVA 6 hours): 97.4 % control
- MCV (red cells; Treated, Day 1, UVA 6 hours (151.2 J/cm^2)): 88.8
- % Hemochrome (red cells; Treated, Day 2, UVA 6 hours): 0.6%
- DI Max % control (deformability index) (red cells; Treated, Day 2, UVA 6 hours): 99.6 % control
- % Hemochrome (red cells; Treated, Day 7, UVA 6 hours): 0.2%
- DI Max % control (deformability index) (red cells; Treated, Day 7, UVA 6 hours): 99.0 % control
- Number of Revertant Colonies ([8]; w/S-9): 197
- Number of Revertant Colonies ([8]; without S-9): 173
- Number of Revertant Colonies ([9]; w/S-9): 25
- Number of Revertant Colonies ([9]; without S-9): 22
- fold improvement in the level of viral inactivation, brominated (8B) vs non-brominated (8C) (phi 6 bacteriophage; 0.1 mg/mL, UVA 3.3 mW/cm^2): ≤ 400 fold
- log reduction at 30 µg/mL (phi 6 bacteriophage; read-out: V.I (log10)): 5.3
- log reduction at 30 µg/mL (phi 6 bacteriophage; read-out: viral reduction): > 5.3

— patent US5587490A, “Method of inactivation of viral and bacterial blood contaminants” (Credit Managers Association of California, priority 1993, dated 1996)
